Molecular target: Serine/threonine-protein kinase PLK1 (Homo sapiens, UniProt P53350)
Assay: Binding Assay
From the text: […] PDB fluorescence polarization competition binding assay using Plk.

Chain of Serine/threonine-protein kinase PLK1 (P53350 whole entry): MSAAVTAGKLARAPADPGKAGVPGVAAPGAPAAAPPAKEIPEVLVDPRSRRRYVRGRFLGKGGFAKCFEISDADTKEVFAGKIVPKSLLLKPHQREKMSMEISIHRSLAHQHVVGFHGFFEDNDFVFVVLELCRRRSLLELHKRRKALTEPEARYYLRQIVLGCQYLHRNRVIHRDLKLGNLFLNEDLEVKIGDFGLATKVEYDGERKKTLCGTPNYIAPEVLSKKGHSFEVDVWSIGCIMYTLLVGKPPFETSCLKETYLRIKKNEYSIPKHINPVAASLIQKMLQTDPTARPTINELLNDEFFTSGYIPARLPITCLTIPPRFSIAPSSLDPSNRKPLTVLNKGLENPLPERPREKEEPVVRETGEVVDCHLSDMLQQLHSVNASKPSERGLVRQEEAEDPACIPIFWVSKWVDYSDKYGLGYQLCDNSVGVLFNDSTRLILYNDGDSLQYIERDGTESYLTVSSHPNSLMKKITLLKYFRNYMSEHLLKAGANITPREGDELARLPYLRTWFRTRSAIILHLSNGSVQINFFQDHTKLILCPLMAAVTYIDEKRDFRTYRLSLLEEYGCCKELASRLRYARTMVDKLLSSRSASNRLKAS

Compound CC(=O)N(CCCCc1ccccc1)CC(=O)N[C@H](CC(C)C)C(=O)N[C@H](Cc1cnc[nH]1)C(=O)N[C@H](CO)C(=O)N[C@@H](C(N)=O)[C@@H](C)CP(=O)(O)O [Peptide-peptoid hybrid, 13] has an IC50 of 0.071 µM.

Source: BindingDB's records for doi:10.1002/cbic.201200206 (Frederick National Laboratory For Cancer Research, 2012)
